What all share (type): in vivo, BALB/c mice
Experiment [1] deals with OVA-sensitized asthmatic mice. Description: Airway hyperresponsiveness (AHR) test, Buxco system, Penh after methacholine aerosol. Here is the method: (§1) Mice in different groups were fed with a Poria extract or pure lanostane compound during the experimental period, and each mouse was subjected to an airway hyperresponsiveness test after one-month feeding, from which an important index reflecting the severe degree of the asthma of the mouse was determined. […] Further, a chemoattractant factor, Eotaxin, was an important observation factor in this example for observing whether the secretion of cytokines changed dramatically.
(§2) • (1) Experimental animal: Inbred BALB/c female mice were maintained by standard laboratory chow ad libitum. Room temperature was maintained at 19-24°C and relative humidity at 50-70%. […] Three minutes after the introduction an average value of AHR per minute was recorded. […] The value of Penh (pause of enhance) was calculated by collecting data derived from transducer (differential pressure transducer; Buxco) and preamplifier (MAX □, Buxco) in the system. The relative increase ratio of Penh was calculated as Penh% = Penhmethacholine/PenhPBS, wherein Penhmethacholine is the average value of Penh after the mice inhale 3 minutes of methacholine aerosol, and PenhPBS is the average value of Penh after the mice inhale 3 minutes of PBS aerosol. • (5) Bronchoalveolar lavage fluid (BALF) and lung histology: As all groups of mice had finished of AHR analysis, they were sacrificed on next day. […]

In experiment [2] the test system is immune cells in BALF of OVA-sensitized mice. Description: Percentage of subpopulations of immune cells in bronchoalveolar lavage fluid (BALF), Liu's stain cell count. Conditions: % of total BALF cells, mean ± SD. The procedure: as §1
• (1) Experimental animal: Inbred BALB/c female mice were maintained by standard laboratory chow ad libitum. Room temperature was maintained at 19-24°C and relative humidity at 50-70%. Animal experiments were performed according to the Guidelines for the Care and Use of Laboratory Animals, Fu-Jen University, Taiwan. […] All mice were exposed to inhalate exposure to 8 ml of 2% OVA aerosols for a period of 20 minutes by placing them in a chamber using an ultrasonic nebulizer (DeVilbiss Pulmo-Aide, 5650D, USA), after receiving the second intraperitoneal injection. • (3) Grouping of the experimental animal: The 10 groups of OVA-sensitized asthmatic mice were separated into a non-treatment asthma group (As); treatment groups with the Poria extract prepared in Example 2 and pure compounds K1, K2 and K3 (1PCE, 1K1, 1K2, 1K3, 2PCE, 2K1, 2K2, and 2K3); and the control drug group (Pred). Each mouse in the treatment group of 1PCE group received daily 0.0372 mg of the ethanol extract PCE prepared in Example 2 (1PCE). 2PCE means mice were fed with two times of the dosage of PCE (0.0744 mg) of the 1PCE group. Each mouse in the treatment groups of 1K1, 1K2 and 1K3 received daily 0.0087 mg of K1, K2 and K3, respectively. 2K1, 2K2, and 2K3 mean mice werer fed with two times of the dosage of K1, K2 and K3 (0.0174 mg) in comparison with the 1K1, 1K2 and 1 K3 groups. Each mouse of the Pred group had been administrated with 0.1 mg of Prednisolone per day for 5 continuous days before the mouse was sacrificed. Above PCE, K1, K2, K3 and Prednisolone compounds were dissolved by 95% ethanol firstly, and finally in Phosphate Buffer Solution (PBS). Each mouse was administered 0.4 mL of total volume each time by gavage. • (4) Airway hyperresponsiveness test: An airway hyperresponsiveness (AHR) value increases proportionally with the severe degree of asthma, and thus a decrease of AHR value is an important index for determining whether asthma is being released. Each mouse in all groups was subjected to the AHR test next day following the 29th day of administering in the treatment groups on which the last inhalate exposure was conducted. The AHR was tested with Buxco system (Biosystem XA; Buxco Electronics Inc. Sharon, CT, USA), wherein the mouse was placed in a chamber, and aerosol of PBS or methacholine of different concentrations (25 mg/ml, and 50 mg/ml) was introduced into the chamber by using an ultrasonic nebulizer. Three minutes after the introduction an average value of AHR per minute was recorded. […] The value of Penh (pause of enhance) was calculated by collecting data derived from transducer (differential pressure transducer; Buxco) and preamplifier (MAX □, Buxco) in the system. The relative increase ratio of Penh was calculated as Penh% = Penhmethacholine/PenhPBS, wherein Penhmethacholine is the average value of Penh after the mice inhale 3 minutes of methacholine aerosol, and PenhPBS is the average value of Penh after the mice inhale 3 minutes of PBS aerosol. • (5) Bronchoalveolar lavage fluid (BALF) and lung histology: As all groups of mice had finished of AHR analysis, they were sacrificed on next day. The lung was immediately lavaged via the trachea cannula (18 GA, angiocath, B.D.) with 1 ml of Hank's balanced salt solution (HBSS, SH30016.01, Hyclone, USA), which contained 2% fetal bovine serum (FBS) and 2 mM 2Na-EDTA for three times. About 3 ml of BALF were collected.

In the next experiment the test system is Eotaxin. Description: Eotaxin level in BALF by Sandwich-ELISA. Particulars: mean ± SD. Here is the method:
as §1, §2
(In general: In an ELISA, binding on a coated surface is turned into a signal by an enzyme label.)

The mark [3] stands for this setting: groups 1K1, 1K2, 1K3: 0.0087 mg per mouse daily by gavage.
The mark [4] stands for this setting: groups 2K1, 2K2, 2K3: 0.0174 mg per mouse daily by gavage.
[5] abbreviates: Pred group: 0.1 mg Prednisolone per day for 5 continuous days before sacrifice.

Each structure is given as a SMILES string. Values joined by “and” are separate entries in the source; they are usually repeats but may differ in a detail not shown here. Equal values may be shown once.

As to `C=C(CC[C@@H](C(=O)O)[C@H]1[C@H](O)C[C@@]2(C)C3=CC[C@H]4C(C)(C)C(=O)CC[C@]4(C)C3=CC[C@]12C)C(C)C` [K3], the “values of AHR in comparison with the As group” value in experiment [1] (groups 1K1, 1K3: 0.0087 mg per mouse daily by gavage, methacholine 50mg/mL) is reported as “significantly lower values ofAHR”. Further, in experiment [2] (setting [3]), the Eosinophil is on record as 11.3±7.0%, the Lymphocyte was found to be 49.8±12.8%, the Monocyte amounted to 38.2±8.7% and the Neutrophil was 0.8±0.9%. In experiment [2] (setting [4]), the Eosinophil worked out at 9.7±3.6%, the Lymphocyte turned out to be 52.1±8.1%, the Monocyte worked out at 37.1±5.7% and the Neutrophil worked out at 1.1±1.1%. The Eotaxin entry in the experiment on Eotaxin (setting [3]) was “significantly lower levels of Eotaxin and 21.1±10.4 pg/mL”. In the experiment on Eotaxin (setting [4]), this molecule yielded an Eotaxin of 25.1 ± 12.0 pg/mL.
Take `C[C@]12C=CC(=O)C=C1CC[C@@H]1[C@@H]2[C@@H](O)C[C@@]2(C)[C@H]1CC[C@]2(O)C(=O)CO` [Pred, Prednisolone, reference compound]: the “values of AHR in comparison with the As group” value in experiment [1] (setting [5]) is listed as “lower values of AHR but not statistically significant”. For the same molecule, in experiment [2] (setting [5]), the Monocyte stood at 13.3±7.8% and the Neutrophil is listed as 0.8±0.8%.

The values above are taken from patent EP2305268A1, “A PHARMACEUTICAL COMPOSITION FOR TREATING DISEASE CAUSED BY IMMUNE DISTURBANCE AND THE EXTRACT FROM TUCKAHOE” (Sinphar Tian-li Pharmaceutical Co., Ltd. (Hangzhou), priority 2008, dated 2009).
